Measurements as given in patent US5653961A, “Butixocort aerosol formulations in hydrofluorocarbon propellant” (Minnesota Mining and Manufacturing Company, priority 1995, dated 1997).
In brackets after ≈: the same amount, converted by molar mass.

Assay: Solubility of butixocort propionate in propellants and propellant/ethanol blends
Format: physicochemical
Experimental: Solubility of butixocort propionate in P134a, P227, and blends thereof with ethanol, was determined as follows: Drug and the selected propellant system were combined and agitated for a period of seven days at a selected temperature to afford a saturated solution. The solid was filtered off and the supernatant was weighed. The propellant was removed by evaporation and the drug was reconstituted quantitatively. The concentration of the drug in the reconstituted solution was determined and from this the mount and concentration of drug dissolved in the propellant system was calculated. TABLES 1 and 2 show the average of three independent determinations.

Q: Which results are given for `CCCC(=O)O[C@]1(C(=O)CSC(=O)CC)CC[C@H]2[C@@H]3CCC4=CC(=O)CC[C@]4(C)[C@H]3[C@@H](O)C[C@@]21C` [Butixocort propionate, 11-beta-hydroxypregn-4-ene-3,20-dione-21-thiopropionate-17-butyrate]?
A: solubility in HFA 134a (HFA 134a, 20° C.): about 0.02 % by weight; solubility in HFA 227 (HFA 227, 20° C.): about 0.03 % by weight; solubility at 168 h (propellant 134a, 0% ethanol, organic solvent or mixture, 0 weight % ethanol, 20°C, Table 2, average of three determinations): 300 µg/mL (≈ 594 µM); solubility at 168 h (propellant 134a, 1% ethanol, organic solvent or mixture, 1 weight % ethanol, 20°C, Table 2): 751 µg/mL (≈ 1490 µM); solubility at 168 h (propellant 134a, 2.5% ethanol, organic solvent or mixture, 2.5 weight % ethanol, 20°C, Table 2): 1760 µg/mL (≈ 3480 µM); solubility at 168 h (propellant 134a, 5% ethanol, organic solvent or mixture, 5 weight % ethanol, 20°C, Table 2): 4180 µg/mL (≈ 8280 µM); solubility at 168 h (propellant 134a, 7.5% ethanol, organic solvent or mixture, 7.5 weight % ethanol, 20°C, Table 2): 6960 µg/mL (≈ 13800 µM); solubility at 168 h (propellant 134a, 10% ethanol, organic solvent or mixture, 10 weight % ethanol, 20°C, Table 2): 9630 µg/mL (≈ 19100 µM); solubility at 168 h (propellant 134a, organic solvent or mixture, 4 °C, Table 1, average of three determinations): 103 µg/mL (≈ 204 µM); solubility at 168 h (propellant 134a, organic solvent or mixture, 20 °C, Table 1, average of three determinations): 203 µg/mL (≈ 402 µM); solubility at 168 h (propellant 134a, organic solvent or mixture, 30 °C, Table 1, average of three determinations): 300 µg/mL (≈ 594 µM); solubility at 168 h (propellant 134a, organic solvent or mixture, 40 °C, Table 1, average of three determinations): 319 µg/mL (≈ 632 µM); solubility at 168 h (propellant 227, 0% ethanol, organic solvent or mixture, Propellant 227, 0 weight % ethanol, 20°C, Table 2, average of three determinations): 395 µg/mL (≈ 783 µM); solubility at 168 h (propellant 227, 1% ethanol, organic solvent or mixture, Propellant 227, 1 weight % ethanol, 20°C, Table 2): 971 µg/mL (≈ 1920 µM); solubility at 168 h (propellant 227, 2.5% ethanol, organic solvent or mixture, Propellant 227, 2.5 weight % ethanol, 20°C, Table 2): 1110 µg/mL (≈ 2210 µM); solubility at 168 h (propellant 227, 5% ethanol, organic solvent or mixture, Propellant 227, 5 weight % ethanol, 20°C, Table 2): 3850 µg/mL (≈ 7630 µM); solubility at 168 h (propellant 227, 7.5% ethanol, organic solvent or mixture, Propellant 227, 7.5 weight % ethanol, 20°C, Table 2): 6200 µg/mL (≈ 12300 µM); solubility at 168 h (propellant 227, 10% ethanol, organic solvent or mixture, Propellant 227, 10 weight % ethanol, 20°C, Table 2): 8520 µg/mL (≈ 16900 µM); solubility at 168 h (propellant 227, organic solvent or mixture, Propellant 227, 4 °C, Table 1, average of three determinations): 261 µg/mL (≈ 517 µM); solubility at 168 h (propellant 227, organic solvent or mixture, Propellant 227, 20 °C, Table 1, average of three determinations): 285 µg/mL (≈ 565 µM); solubility at 168 h (propellant 227, organic solvent or mixture, Propellant 227, 30 °C, Table 1, average of three determinations): 306 µg/mL (≈ 606 µM); solubility at 168 h (propellant 227, organic solvent or mixture, Propellant 227, 40 °C, Table 1, average of three determinations): 317 µg/mL (≈ 628 µM)
